Molecular target: T1, Broad substrate specificity ATP-binding cassette transporter ABCG2 (Homo sapiens, UniProt Q9UNQ0)
T1 sequence (Q9UNQ0 whole entry): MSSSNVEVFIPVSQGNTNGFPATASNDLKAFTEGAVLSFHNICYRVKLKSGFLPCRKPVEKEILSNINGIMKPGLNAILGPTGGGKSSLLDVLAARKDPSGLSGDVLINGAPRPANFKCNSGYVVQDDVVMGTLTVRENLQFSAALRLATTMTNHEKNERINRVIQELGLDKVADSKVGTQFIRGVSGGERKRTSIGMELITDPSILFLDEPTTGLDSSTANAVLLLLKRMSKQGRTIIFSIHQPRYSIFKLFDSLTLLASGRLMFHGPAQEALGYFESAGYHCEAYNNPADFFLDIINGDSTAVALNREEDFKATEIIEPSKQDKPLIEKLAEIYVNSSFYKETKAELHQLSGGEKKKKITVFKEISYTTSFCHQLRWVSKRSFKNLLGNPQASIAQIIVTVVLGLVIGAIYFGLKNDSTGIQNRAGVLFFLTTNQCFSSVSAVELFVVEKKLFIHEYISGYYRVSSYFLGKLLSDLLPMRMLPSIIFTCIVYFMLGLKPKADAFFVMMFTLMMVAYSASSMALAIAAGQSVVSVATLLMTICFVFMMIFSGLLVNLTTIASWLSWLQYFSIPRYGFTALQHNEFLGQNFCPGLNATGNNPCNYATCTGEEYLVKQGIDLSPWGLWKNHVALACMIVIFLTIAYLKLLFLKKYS
Assay: Screening Assay for ABCG2 Inhibitors
Conditions: pH 7.4; 37 °C
Description: IC50 and maximal activities for inhibition of PhA accumulation were determined from dose-response curves. The accumulation of PhA, a fluorescent ABCG2 substrate, formed the basis of the assay for inhibitors of ABCG2 activity. NCI-H460/MX20 cells were transferred to black-walled, clear-bottomed 384-well polylysine-coated assay plates (Corning) and allowed to attach for several hours. PhA was added, immediately followed by compounds or vehicle (DMSO/PBS) control and incubated for an additional 18 h. After removal of medium and washing with PBS containing Ca2+ and Mg2+, fluorescence intensity was read on a Tecan Safire fluorescence plate reader in bottom read mode (395 nm excitation, 670 nm emission). Each plate had control wells containing Fumitremorgin C (FTC). Data were normalized to FTC and reported as the percentage of FTC fluorescence. Apparent IC50 values were calculated from dose-response data using SigmaPlot (SPSS, Inc., Chicago) 4-parameter logistic nonlinear regression analysis.

| IC50 [µM] | Compound |
| --- | --- |
| 11.2 | CO/C(=C/c1ccc(O)cc1)C(=O)N/C=C/c1cc(Br)c(OC)c(Br)c1 [Botryllamide B, 2] |
| 41.4 | CO/C(=C/c1ccc(O)cc1)C(=O)N/C=C/c1ccc(OC)cc1 [Botryllamide I, 9] |
| 33.4 | CO/C(=C\c1ccc(O)cc1)C(=O)N/C=C/c1cc(Br)c(OC)c(Br)c1 [US8470888, Botryllamide A] |
| 16.7 | CO/C(=C\c1ccc(O)cc1)C(=O)N/C=C/c1ccc(O)cc1 [US8470888, Botryllamide F] |
| 23.3 | CO/C(=C\c1ccc(O)cc1)C(=O)N/C=C/c1ccc(OC)cc1 [US8470888, Botryllamide I] |

Continued, compound first:

| Compound | IC50 [µM] |
| --- | --- |
| CO/C(=C/c1ccc(O)cc1)C(=O)N/C=C/c1ccc(OC)c(Br)c1 [Botryllamide D, 4] | 16.4 |
| COc1ccc2c3c([nH]c2c1)[C@H](C=C(C)C)N1C(=O)[C@@H]2CCCN2C(=O)[C@@H]1C3 [Fumitremorgin C] | 0.79 |
| CO/C(=C\c1ccc(O)cc1)C(=O)N/C=C/c1cc(Br)c(O)c(Br)c1 [US8470888, Botryllamide G] | 6.9 |

— BindingDB's records for doi:10.1021/cb900134c (Saic-Frederick, 2009)
